Numbered stars: 1 amine (or outer) side, 2 acyl side, 3 side chain; on linkers, the order of the positions; unused ones are H or OH. Bridge positions count the residues as written; N and C are the ends. Square brackets hold non-standard residues; d marks the D form. Side chains are listed from the residue outwards. Peptide text beside a SMILES is read from it. * marks the point of attachment. C18 diacid = O=C(O)CCCCCCCCCCCCCCCCC(=O)*; γGlu = O=C(O)[C@H](CCC(=O)[*:2])N[*:1]; αMeF = C[C@](N)(Cc1ccccc1)C(=O)O; AEEA = NCCOCCOCC(=O)O
Test: Thioflavin T fibrillation assay
Format: physicochemical
Details: 1 mg/mL in 25 mM sodium acetate buffer pH 4.0, 37° C., 6 days, orbital shaking; >144 h = no increase
Text: Peptide aggregation that form fibrils is an indication of physical instability. Fibril formation in solution poses a significant risk for the stability of injectable peptide drug products. Thioflavin T (ThT) fibrillation assay is a useful tool to assess the aggregation kinetics of a peptide or protein under accelerated and stressed conditions that can be used to forecast the long-term viability of a compound in solution. ThT can selectively bind amyloid fibrils and the resultant complex emits strong fluorescence signal at 482 nm when excited at 450 nm (Anal Biochem. 1989 March; 177 (2): 244-9). Monitoring of the change in fluorescence signal is an established method to study the fibril forming potential of peptides and proteins. ThT (purchased from Sigma Aldrich) stock solution is prepared by dissolving the ThT powder in Milli-Q water and filtered to obtain a 0.25 mM solution. The concentration of the solution is measured at 412 nm using an extinction coefficient of 36 mM-1 cm-1. Test peptides were dissolved at 1 mg/mL in 25 mM sodium acetate buffer pH 4.0. 100 μL aliquot of peptide solution and 5 μL aliquot of ThT solution were placed in a clear bottom black fluorescence 96-well plate. 5 replicates of each test samples were placed in the same row of the plate. Buffer was placed in control wells for baseline correction. All empty wells were filled with water to prevent evaporation. The plate was sealed with aluminium seal and placed in fluorescence plate reader and incubated for 6 days at 37° C. with intermittent orbital shaking at 500 to 750 rpm. The fluorescence intensity was measured every 30 min using excitation at 444 nm and emission at 480 nm. The fibril forming potential of the test peptides was determined by measuring the average time taken to detect an increase in baseline corrected fluorescence intensity.

| SMILES | Time taken to detect increase in fluorescence intensity |
| --- | --- |
| CC[C@H](C)[C@H](NC(=O)[C@@H]1CCCN1C(=O)CNC(=O)[C@](C)(Cc1ccccc1)NC(=O)[C@H](CC(N)=O)NC(=O)[C@H](CC(N)=O)NC(=O)[C@H](CO)NC(=O)[C@H](CO)NC(=O)[C@H](Cc1c[nH]cn1)NC(=O)[C@H](CCCNC(=N)N)NC(=O)[C@H](CC(C)C)NC(=O)[C@H](Cc1ccccc1)NC(=O)[C@H](CCC(=O)O)NC(=O)[C@H](C)NC(=O)[C@H](CC(C)C)NC(=O)[C@H](CCCNC(=N)N)NC(=O)[C@H](CCC(N)=O)NC(=O)[C@@H](NC(=O)[C@H](C)NC(=O)[C@@H]1CSSC[C@H](NC(=O)CC[C@H](NC(=O)CCCCCCCCCCCCCCCCC(=O)O)C(=O)O)C(=O)N[C@@H](CC(N)=O)C(=O)N[C@@H]([C@@H](C)O)C(=O)N[C@@H](C)C(=O)N[C@@H]([C@@H](C)O)C(=O)N1)[C@@H](C)O)C(=O)N[C@@H](CC(C)C)C(=O)N1CCC[C@H]1C(=O)N1CCC[C@H]1C(=O)N[C@H](C(=O)N[C@@H](CC(N)=O)C(=O)N[C@H](C(=O)NCC(=O)N[C@@H](CO)C(=O)N[C@@H](CC(N)=O)C(=O)N[C@H](C(=O)N[C@@H](Cc1ccc(O)cc1)C(N)=O)[C@@H](C)O)C(C)C)[C@@H](C)O [Peptide 10, C18diacid-γE-[CNTATC]ATQRLAEFLRHSSNN(αMePhe)GPILPPTNVGSNTY-amide] ({C18 diacid-γGlu}-CNTATCATQRLAEFLRHSSNN[αMeF]GPILPPTNVGSNTY-NH2; disulfide 1-6) | >144 h |
| CC[C@H](C)[C@H](NC(=O)[C@@H]1CCCN1C(=O)CNC(=O)[C@](C)(Cc1ccccc1)NC(=O)[C@H](CC(N)=O)NC(=O)[C@H](CC(N)=O)NC(=O)[C@H](CO)NC(=O)[C@H](CO)NC(=O)[C@H](Cc1c[nH]cn1)NC(=O)[C@H](CCCNC(=N)N)NC(=O)[C@H](CC(C)C)NC(=O)[C@H](Cc1ccccc1)NC(=O)[C@H](CCC(=O)O)NC(=O)[C@H](C)NC(=O)[C@H](CC(C)C)NC(=O)[C@H](CCCNC(=N)N)NC(=O)[C@H](CCC(N)=O)NC(=O)[C@@H](NC(=O)[C@H](C)NC(=O)[C@@H]1CSSC[C@H](NC(=O)[C@@H](N)CCCCNC(=O)CC[C@H](NC(=O)CC[C@H](NC(=O)CCCCCCCCCCCCCCCCC(=O)O)C(=O)O)C(=O)O)C(=O)N[C@@H](CC(N)=O)C(=O)N[C@@H]([C@@H](C)O)C(=O)N[C@@H](C)C(=O)N[C@@H]([C@@H](C)O)C(=O)N1)[C@@H](C)O)C(=O)N[C@@H](CC(C)C)C(=O)N1CCC[C@H]1C(=O)N1CCC[C@H]1C(=O)N[C@H](C(=O)N[C@@H](CC(N)=O)C(=O)N[C@H](C(=O)NCC(=O)N[C@@H](CO)C(=O)N[C@@H](CC(N)=O)C(=O)N[C@H](C(=O)N[C@@H](Cc1ccc(O)cc1)C(N)=O)[C@@H](C)O)C(C)C)[C@@H](C)O [Peptide 11, K(γE-γE-C18diacid)[CNTATC]ATQRLAEFLRHSSNN(αMePhe)GPILPPTNVGSNTY-amide] (H-K([γGlu-γGlu-C18 diacid])CNTATCATQRLAEFLRHSSNN[αMeF]GPILPPTNVGSNTY-NH2; disulfide 2-7; N-terminus assumed) | >144 h |
| CC[C@H](C)[C@H](NC(=O)[C@@H]1CCCN1C(=O)CNC(=O)[C@](C)(Cc1ccccc1)NC(=O)[C@H](CC(N)=O)NC(=O)[C@H](CC(N)=O)NC(=O)[C@H](CO)NC(=O)[C@H](CO)NC(=O)[C@H](Cc1c[nH]cn1)NC(=O)[C@@H](NC(=O)[C@H](CC(C)C)NC(=O)[C@H](Cc1ccccc1)NC(=O)[C@H](CC(N)=O)NC(=O)[C@H](C)NC(=O)[C@H](CC(C)C)NC(=O)[C@H](CCCNC(=N)N)NC(=O)[C@H](CCC(N)=O)NC(=O)[C@@H](NC(=O)[C@H](C)NC(=O)[C@@H]1CSSC[C@H](NC(=O)[C@@H](N)CCCCNC(=O)CC[C@H](NC(=O)CC[C@H](NC(=O)CCCCCCCCCCCCCCCCC(=O)O)C(=O)O)C(=O)O)C(=O)N[C@@H](CC(N)=O)C(=O)N[C@@H]([C@@H](C)O)C(=O)N[C@@H](C)C(=O)N[C@@H]([C@@H](C)O)C(=O)N1)[C@@H](C)O)C(C)C)C(=O)N[C@@H](CC(C)C)C(=O)N1CCC[C@H]1C(=O)N1CCC[C@H]1C(=O)N[C@H](C(=O)N[C@@H](CC(N)=O)C(=O)N[C@H](C(=O)NCC(=O)N[C@@H](CO)C(=O)N[C@@H](CC(N)=O)C(=O)N[C@H](C(=O)N[C@@H](Cc1ccc(O)cc1)C(N)=O)[C@@H](C)O)C(C)C)[C@@H](C)O [Peptide 13, K(γE-γE-C18diacid)[CNTATC]ATQRLANFLVHSSNN(αMePhe)GPILPPTNVGSNTY-amide] (H-K([γGlu-γGlu-C18 diacid])CNTATCATQRLANFLVHSSNN[αMeF]GPILPPTNVGSNTY-NH2; disulfide 2-7; N-terminus assumed) | 25 h |
| CC[C@H](C)[C@H](NC(=O)[C@@H]1CCCN1C(=O)CNC(=O)[C@](C)(Cc1ccccc1)NC(=O)[C@H](CC(N)=O)NC(=O)[C@H](CC(N)=O)NC(=O)[C@H](CO)NC(=O)[C@H](CO)NC(=O)[C@H](Cc1c[nH]cn1)NC(=O)[C@H](CCCNC(=N)N)NC(=O)[C@H](CC(C)C)NC(=O)[C@H](Cc1ccccc1)NC(=O)[C@H](CC(N)=O)NC(=O)[C@H](C)NC(=O)[C@H](CC(C)C)NC(=O)[C@H](CCCNC(=N)N)NC(=O)[C@H](CCC(N)=O)NC(=O)[C@@H](NC(=O)[C@H](C)NC(=O)[C@@H]1CSSC[C@H](NC(=O)[C@@H](N)CCCCNC(=O)COCCOCCNC(=O)COCCOCCNC(=O)CC[C@H](NC(=O)CCCCCCCCCCCCCCCCC(=O)O)C(=O)O)C(=O)N[C@@H](CC(N)=O)C(=O)N[C@@H]([C@@H](C)O)C(=O)N[C@@H](C)C(=O)N[C@@H]([C@@H](C)O)C(=O)N1)[C@@H](C)O)C(=O)N[C@@H](CC(C)C)C(=O)N1CCC[C@H]1C(=O)N1CCC[C@H]1C(=O)N[C@H](C(=O)N[C@@H](CCC(=O)O)C(=O)N[C@H](C(=O)NCC(=O)N[C@@H](CO)C(=O)N[C@@H](CC(N)=O)C(=O)N[C@H](C(=O)N[C@@H](Cc1ccc(O)cc1)C(N)=O)[C@@H](C)O)C(C)C)[C@@H](C)O [Peptide 17, K(O2Oc-O2Oc-γE-C18diacid)[CNTATC]ATQRLANFLRHSSNN(αMePhe)GPILPPTEVGSNTY-amide] (H-K([AEEA-AEEA-γGlu-C18 diacid])CNTATCATQRLANFLRHSSNN[αMeF]GPILPPTEVGSNTY-NH2; disulfide 2-7; N-terminus assumed) | >144 h |
| CC[C@H](C)[C@H](NC(=O)[C@@H]1CCCN1C(=O)CNC(=O)[C@](C)(Cc1ccccc1)NC(=O)[C@H](CC(N)=O)NC(=O)[C@H](CC(N)=O)NC(=O)[C@H](CO)NC(=O)[C@H](CO)NC(=O)[C@H](Cc1c[nH]cn1)NC(=O)[C@H](CCCNC(=N)N)NC(=O)[C@H](CC(C)C)NC(=O)[C@H](Cc1ccccc1)NC(=O)[C@H](CC(N)=O)NC(=O)[C@H](C)NC(=O)[C@H](CC(C)C)NC(=O)[C@H](CCCNC(=N)N)NC(=O)[C@H](CCC(N)=O)NC(=O)[C@@H](NC(=O)[C@H](C)NC(=O)[C@@H]1CSSC[C@H](NC(=O)[C@@H](N)CCCCNC(=O)CC[C@H](NC(=O)CC[C@H](NC(=O)CCCCCCCCCCCCCCCCC(=O)O)C(=O)O)C(=O)O)C(=O)N[C@@H](CC(N)=O)C(=O)N[C@@H]([C@@H](C)O)C(=O)N[C@@H](C)C(=O)N[C@@H]([C@@H](C)O)C(=O)N1)[C@@H](C)O)C(=O)N[C@@H](CC(C)C)C(=O)N1CCC[C@H]1C(=O)N1CCC[C@H]1C(=O)N[C@H](C(=O)N[C@@H](CCC(=O)O)C(=O)N[C@H](C(=O)NCC(=O)N[C@@H](CO)C(=O)N[C@@H](CC(N)=O)C(=O)N[C@H](C(=O)N[C@@H](Cc1ccc(O)cc1)C(N)=O)[C@@H](C)O)C(C)C)[C@@H](C)O [Peptide 18, K(γE-γE-C18diacid)[CNTATC]ATQRLANFLRHSSNN(αMePhe)GPILPPTEVGSNTY-amide] (H-K([γGlu-γGlu-C18 diacid])CNTATCATQRLANFLRHSSNN[αMeF]GPILPPTEVGSNTY-NH2; disulfide 2-7; N-terminus assumed) | >144 h |
| CC[C@H](C)[C@H](NC(=O)[C@@H]1CCCN1C(=O)CNC(=O)[C@](C)(Cc1ccccc1)NC(=O)[C@H](CC(N)=O)NC(=O)[C@H](CC(N)=O)NC(=O)[C@H](CO)NC(=O)[C@H](CO)NC(=O)[C@H](Cc1c[nH]cn1)NC(=O)[C@H](CCCNC(=N)N)NC(=O)[C@H](CC(C)C)NC(=O)[C@H](Cc1ccccc1)NC(=O)[C@H](CC(N)=O)NC(=O)[C@H](C)NC(=O)[C@H](CC(C)C)NC(=O)[C@H](CCCNC(=N)N)NC(=O)[C@H](CCC(N)=O)NC(=O)[C@@H](NC(=O)[C@H](C)NC(=O)[C@@H]1CSSC[C@H](NC(=O)[C@@H](N)CCCCNC(=O)CC[C@H](NC(=O)CCCCCCCCCCCCCCCCC(=O)O)C(=O)O)C(=O)N[C@@H](CC(N)=O)C(=O)N[C@@H]([C@@H](C)O)C(=O)N[C@@H](C)C(=O)N[C@@H]([C@@H](C)O)C(=O)N1)[C@@H](C)O)C(=O)N[C@@H](CC(C)C)C(=O)N1CCC[C@H]1C(=O)N1CCC[C@H]1C(=O)N[C@H](C(=O)N[C@@H](CC(N)=O)C(=O)N[C@H](C(=O)NCC(=O)N[C@@H](CO)C(=O)N[C@@H](CC(N)=O)C(=O)N[C@H](C(=O)N[C@@H](Cc1ccc(O)cc1)C(N)=O)[C@@H](C)O)C(C)C)[C@@H](C)O [Peptide 19, K(γE-C18diacid)[CNTATC]ATQRLANFLRHSSNN(αMePhe)GPILPPTNVGSNTY-amide] (H-K([γGlu-C18 diacid])CNTATCATQRLANFLRHSSNN[αMeF]GPILPPTNVGSNTY-NH2; disulfide 2-7; N-terminus assumed) | >144 h |

— patent publication US12371464B2, “Polypeptides and uses thereof” (MEDIMMUNE LIMITED, priority 2020, dated 2025)
